Test results taken from US20240279237A1, “FUSED BICYCLIC HETEROARYL COMPOUNDS USEFUL AS NLRP3 INHIBITORS” (Hoffmann-La Roche Inc., priority 2021, published 2024).
Counter-ions that a name gives are not always drawn.

Biological target: T1, NLRP3 (Homo sapiens, UniProt Q96P20)
T1 construct: Seed THP-1 cells (25,000 cells/well) containing 1.0 μg/ml LPS in 40 μl of RPMI medium; host or cells: THP-1 cells
Assay: THP-1 Cells Pyroptosis Assay
Format: cell-based
Conditions: THP-1 cells with 1.0 μg/ml LPS; compound 3 hours; nigericin 5 μM 1 hr; resazurin readout
Method in brief: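 THP-1 cells in serum-free RPMI primed with LPS (1 μg/ml FAC), incubated with compound 3 h at 37 °C, then nigericin (5 μM FAC) for 1 h. Supernatant removed after spin; viability read by resazurin (100 μM FAC) reduction after a further 1-2 h at 37 °C.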

T1 sequence (Q96P20 whole entry): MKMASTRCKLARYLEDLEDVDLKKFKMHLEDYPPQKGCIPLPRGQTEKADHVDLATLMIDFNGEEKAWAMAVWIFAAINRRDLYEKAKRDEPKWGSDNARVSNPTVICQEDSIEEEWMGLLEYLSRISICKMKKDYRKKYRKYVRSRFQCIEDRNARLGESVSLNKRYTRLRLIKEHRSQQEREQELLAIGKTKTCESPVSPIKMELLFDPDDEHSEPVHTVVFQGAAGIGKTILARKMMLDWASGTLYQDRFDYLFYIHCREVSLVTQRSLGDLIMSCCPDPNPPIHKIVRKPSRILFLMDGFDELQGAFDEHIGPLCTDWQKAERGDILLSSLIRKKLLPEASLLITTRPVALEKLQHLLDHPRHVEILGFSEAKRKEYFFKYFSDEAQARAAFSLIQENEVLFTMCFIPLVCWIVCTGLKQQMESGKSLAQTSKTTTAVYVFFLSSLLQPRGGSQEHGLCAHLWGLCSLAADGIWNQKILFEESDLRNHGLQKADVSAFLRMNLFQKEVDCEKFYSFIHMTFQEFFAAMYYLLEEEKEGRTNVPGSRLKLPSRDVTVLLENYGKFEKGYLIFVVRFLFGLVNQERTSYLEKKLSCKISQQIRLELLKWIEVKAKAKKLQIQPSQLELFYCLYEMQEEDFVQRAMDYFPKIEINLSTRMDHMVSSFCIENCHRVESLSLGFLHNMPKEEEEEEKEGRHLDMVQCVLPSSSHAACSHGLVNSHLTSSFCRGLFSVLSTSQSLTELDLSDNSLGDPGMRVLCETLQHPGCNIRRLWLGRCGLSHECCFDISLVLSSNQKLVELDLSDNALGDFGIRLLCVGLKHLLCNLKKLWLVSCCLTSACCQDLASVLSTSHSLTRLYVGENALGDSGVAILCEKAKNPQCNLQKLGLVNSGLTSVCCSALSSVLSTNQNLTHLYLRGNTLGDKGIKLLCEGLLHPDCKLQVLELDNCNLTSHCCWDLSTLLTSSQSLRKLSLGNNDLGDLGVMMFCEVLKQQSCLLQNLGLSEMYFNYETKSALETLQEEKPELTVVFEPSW

Compound | IC50 [nM]
Cc1ccc(C#N)c(O)c1-c1ccc2oc(N[C@@H]3CCCN(C)C3)nc2n1 [Example 82, 2-Hydroxy-4-methyl-3-[2-[[(3R)-1-methyl-3-piperidyl]amino]oxazolo[4,5-b]pyridin-5-yl]benzonitrile;2,2,2-trifluoroacetic acid] | 128
Cc1cc(C(F)(F)F)cc(O)c1-c1cc(C(C)(C)O)c2oc(N[C@@H]3CCCN(C)C3)nc2n1 [Example 105, 2-[7-(1-Hydroxy-1-methyl-ethyl)-2-[[(3R)-1-methyl-3-piperidyl]amino]oxazolo[4,5-b]pyridin-5-yl]-3-methyl-5-(trifluoromethyl)phenol;2,2,2-trifluoroacetic acid] | 8.9
Cc1cc(C(F)(F)F)cc(O)c1-c1ccc2oc(C3CCC(=O)NC3)nc2n1 (racemic) [Example 9, (rac)-5-(5-(2-Hydroxy-6-methyl-4-(trifluoromethyl)phenyl)oxazolo[4,5-b]pyridin-2-yl) piperidin-2-one] | 15.3
Cc1cc(C#N)cc(O)c1-c1ccc2oc(N[C@@H]3C[C@H](O)CN(C)C3)nc2n1 [Example 56, 3-Hydroxy-4-[2-[[(3R,5S)-5-hydroxy-1-methyl-3-piperidyl]amino]oxazolo[4,5-b]pyridin-5-yl]-5-methyl-benzonitrile] | 18.9
CCN1C[C@@H](O)C[C@@H](Nc2nc3nc(-c4c(C)cc(C(F)(F)F)cc4O)ccc3o2)C1 [Example 51, (3S,5R)-1-Ethyl-5-[[5-[2-hydroxy-6-methyl-4-(trifluoromethyl)phenyl]oxazolo[4,5-b]pyridin-2-yl]amino]piperidin-3-ol] | 1.8
Cc1cc(C(F)F)cc(O)c1-c1ccc2oc(N[C@@H]3CCCN(C)C3)nc2n1 [Example 121, 5-(Difluoromethyl)-3-methyl-2-[2-[[(3R)-1-methyl-3-piperidyl]amino]oxazolo[4,5-b]pyridin-5-yl]phenol] | 2.7
Cc1cc(C(F)(F)F)cc(O)c1-c1ccc2oc(N3CCO[C@@H]4CNC[C@H]43)nc2n1 [Example 64A, 2-[2-[(4aR,7aR)-3,4a,5,6,7,7a-Hexahydro-2H-pyrrolo[3,4-b][1,4]oxazin-4-yl]oxazolo[4,5-b]pyridin-5-yl]-3-methyl-5-(trifluoromethyl)phenol] | 1.7
3-Methyl-2-[2-[[(2R)-1-methylazetidin-2-yl]methylamino]oxazolo[4,5-b]pyridin-5-yl]-5-(trifluoromethyl)phenol or 3-methyl-2-[2-[[(2S)-1-methylazetidin-2-yl]methylamino]oxazolo[4,5-b]pyridin-5-yl]-5-(trifluoromethyl)phenol [Example 66A] | 398
CCN1CCC[C@@H](Nc2nc3nc(-c4c(C)cc(C(F)(F)F)cc4O)cc(N4CC(O)C4)c3o2)C1 [Example 101, 1-[2-[[(3R)-1-Ethyl-3-piperidyl]amino]-5-[2-hydroxy-6-methyl-4-(trifluoromethyl)phenyl]-oxazolo[4,5-b]pyridin-7-yl]azetidin-3-ol] | 6
Cc1cc(C(F)(F)F)cc(O)c1-c1ccc2oc(N[C@@H]3C[C@H]3N(C)C)nc2n1 [Example 55, 2-[2-[[(1R,2R)-2-(Dimethylamino)cyclopropyl]amino]oxazolo[4,5-b]pyridin-5-yl]-3-methyl-5-(trifluoromethyl)phenol] | 17.8
CCN1CCC[C@@H](Nc2nc3nc(-c4c(C)cc(Cl)cc4O)cnc3o2)C1 [Example 113, 5-Chloro-2-[2-[[(3R)-1-ethyl-3-piperidyl]amino]oxazolo[4,5-b]pyrazin-5-yl]-3-methyl-phenol;2,2,2-trifluoroacetic acid] | 0.5
Cc1cc(Cl)cc(O)c1-c1ccc2oc(NCc3ncc[nH]3)nc2n1 [Example 76, 5-Chloro-2-[2-(1H-imidazol-2-ylmethylamino)oxazolo[4,5-b]pyridin-5-yl]-3-methyl-phenol] | 143
CCN1C[C@H](O)C[C@@H](Nc2nc3nc(-c4c(C)cc(Cl)cc4O)ccc3o2)C1 [Example 68, (3R,5R)-5-[[5-(4-Chloro-2-hydroxy-6-methyl-phenyl)oxazolo[4,5-b]pyridin-2-yl]amino]-1-ethyl-piperidin-3-ol;formic acid] | 62.4
Cc1cc(C(F)(F)F)cc(O)c1-c1ccc2oc(NC3CCCC(O)C3)nc2n1 (centres unmarked) [Example 13, 2-[2-[(3-Hydroxycyclohexyl)amino]oxazolo[4,5-b]pyridin-5-yl]-3-methyl-5-(trifluoromethyl)phenol] | 442
Cc1cc(C(F)(F)F)cc(O)c1-c1ccc2oc(NC34CCC(CC3)N(C)C4)nc2n1 [Example 120, 3-Methyl-2-[2-[(2-methyl-2-azabicyclo[2.2.2]octan-4-yl)amino]oxazolo[4,5-b]pyridin-5-yl]-5-(trifluoromethyl)phenol] | 108
Cc1cc(C#N)cc(O)c1-c1ccc2oc(N3CCCC4CCN(C)CC43)nc2n1 (centres unmarked) [Example 81, 3-Hydroxy-5-methyl-4-[2-(7-methyl-2,3,4,4a,5,6,8,8a-octahydro-1,7-naphthyridin-1-yl)oxazolo[4,5-b]pyridin-5-yl]benzonitrile] | 72.3
CCN1CCC[C@@H](Nc2nc3nc(-c4c(C)cc(C#N)cc4O)cnc3o2)C1 [Example 109, 4-[2-[[(3R)-1-Ethyl-3-piperidyl]amino]oxazolo[4,5-b]pyrazin-5-yl]-3-hydroxy-5-methyl-benzonitrile;2,2,2-trifluoroacetic acid] | 1.4
Cc1cc(C(F)(F)F)cc(O)c1-c1ccc2oc(NC[C@H]3C[C@@](C)(O)C3)nc2n1 [Example 57, cis-2-[2-[(3-Hydroxy-3-methyl-cyclobutyl)methylamino]oxazolo[4,5-b]pyridin-5-yl]-3-methyl-5-(trifluoromethyl)phenol] | 50.3
Cc1cc(C(F)(F)F)cc(O)c1-c1ccc2oc(N3CCOCC3CN(C)C)nc2n1 (single isomer, unassigned) [Example 2A, 2-[2-[(3R or 3S)-3-[(Dimethylamino)methyl]morpholin-4-yl]oxazolo[4,5-b]pyridin-5-yl]-3-methyl-5-(trifluoromethyl)phenol] | 129
CCN1CCC[C@@H](Nc2nc3nc(-c4c(C)cc(C(F)(F)F)cc4O)cc(N(C)C)c3o2)C1 [Example 116, 2-[7-(Dimethylamino)-2-[[(3R)-1-ethyl-3-piperidyl]amino]oxazolo[4,5-b]pyridin-5-yl]-3-methyl-5-(trifluoromethyl)phenol] | 6.9
Cc1cc(Cl)cc(O)c1-c1ccc2oc(N[C@@H]3CCCN(CCC(F)F)C3)nc2n1 [Example 74, 5-Chloro-2-[2-[[(3R)-1-(3,3-difluoropropyl)-3-piperidyl]amino]oxazolo[4,5-b]pyridin-5-yl]-3-methyl-phenol] | 9.2
Cc1cc(C#N)cc(O)c1-c1ccc2oc(N3CCC4CCN(C)CC43)nc2n1 (single isomer, unassigned) [Example 27B, 4-[2-[(3aR,7aS or 3aS,7aR)-6-methyl-3,3a,4,5,7,7a-hexahydro-2H-pyrrolo[2,3-c]pyridin-1-yl]oxazolo[4,5-b]pyridin-5-yl]-3-hydroxy-5-methyl-benzonitrile] | 2.7
CCN1CC(CNc2nc3nc(-c4c(C)cc(Cl)cc4O)ccc3o2)C1 [Example 59, 5-Chloro-2-[2-[(1-ethylazetidin-3-yl)methylamino]oxazolo[4,5-b]pyridin-5-yl]-3-methyl-phenol] | 30.1
CCN1CCC[C@@H](Nc2nc3nc(-c4c(C)cc(C(F)(F)F)cc4O)ccc3o2)C1 [Example 14, 2-[2-[[(3R)-1-Ethyl-3-piperidyl]amino]oxazolo[4,5-b]pyridin-5-yl]-3-methyl-5-(trifluoromethyl)phenol] | 1
COCCN(c1nc2nc(-c3c(C)cc(Cl)cc3O)ccc2o1)[C@@H]1CCCN(C)C1 [Example 90, 5-Chloro-2-[2-[2-methoxyethyl-[(3R)-1-methyl-3-piperidyl]amino]oxazolo[4,5-b]pyridin-5-yl]-3-methyl-phenol;formic acid] | 22.6
CCN1CCC[C@@H](Nc2nc3nc(-c4c(O)cc(C(F)(F)F)cc4OC)ccc3o2)C1 [Example 31, 2-[2-[[(3R)-1-Ethyl-3-piperidyl]amino]oxazolo[4,5-b]pyridin-5-yl]-3-methoxy-5-(trifluoromethyl)phenol;2,2,2-trifluoroacetic acid salt] | 4
Cc1cc(C(F)(F)F)cc(O)c1-c1cc(C(C)O)c2oc(N[C@@H]3CCCN(C)C3)nc2n1 (stereo partly drawn) [Example 106, 2-[7-(1-Hydroxyethyl)-2-[[(3R)-1-methyl-3-piperidyl]amino]oxazolo[4,5-b]pyridin-5-yl]-3-methyl-5-(trifluoromethyl)phenol] | 22
CCN1CCC[C@@H](Nc2nc3nc(-c4c(C)cc(C(F)(F)F)cc4O)cc(OC)c3o2)C1 [Example 104, 2-[2-[[(3R)-1-Ethyl-3-piperidyl]amino]-7-methoxy-oxazolo[4,5-b]pyridin-5-yl]-3-methyl-5-(trifluoromethyl)phenol] | 1.9
CCN1CCC[C@@H](Nc2nc3ccc(-c4c(C)cc(Cl)cc4O)nc3[nH]2)C1 [Example 136, 5-Chloro-2-[2-[[(3R)-1-ethyl-3-piperidyl]amino]-3H-imidazo[4,5-b]pyridin-5-yl]-3-methyl-phenol] | 1
